PMC6151589, “Identification of Optically Active Pyrimidine Derivatives as Selective 5-HT2C Modulators” (Molecules : A Journal of Synthetic Chemistry and Natural …, 2017)
Read-outs that look alike come from different tables or passages of the source.

Assays:
Type in all cases: binding
[1] = biological target: T1, 5-HT2C (Homo sapiens, UniProt P28335); assay: [3H]mesulergine displacement, membranes
T1 construct: gene HTR2C; human recombinant receptor; crude membrane fractions of transfected cells (CHO-K1; HEK293 or CHO)
T1 sequence (P28335 33-458): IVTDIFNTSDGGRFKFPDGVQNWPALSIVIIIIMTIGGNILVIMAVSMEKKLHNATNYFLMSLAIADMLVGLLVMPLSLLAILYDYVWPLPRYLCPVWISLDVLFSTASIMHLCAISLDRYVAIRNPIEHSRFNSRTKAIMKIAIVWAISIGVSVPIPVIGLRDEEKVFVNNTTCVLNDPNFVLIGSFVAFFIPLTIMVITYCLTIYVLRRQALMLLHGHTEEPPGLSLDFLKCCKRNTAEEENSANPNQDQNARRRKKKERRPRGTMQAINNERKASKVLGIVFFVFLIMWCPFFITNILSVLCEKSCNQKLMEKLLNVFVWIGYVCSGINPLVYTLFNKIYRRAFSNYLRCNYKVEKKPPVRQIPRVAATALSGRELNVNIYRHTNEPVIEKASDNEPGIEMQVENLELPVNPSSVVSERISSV
Excerpt: [3H]mesulergine displacement, membranes on 5-HT2C

[2] = biological target: T2, 5-HT2A (Homo sapiens, UniProt P28223); assay: radioligand displacement, membranes
T2 construct: gene HTR2A; human recombinant receptor; crude membrane fractions of transfected HEK293 or CHO cells
T2 sequence (P28223 whole entry): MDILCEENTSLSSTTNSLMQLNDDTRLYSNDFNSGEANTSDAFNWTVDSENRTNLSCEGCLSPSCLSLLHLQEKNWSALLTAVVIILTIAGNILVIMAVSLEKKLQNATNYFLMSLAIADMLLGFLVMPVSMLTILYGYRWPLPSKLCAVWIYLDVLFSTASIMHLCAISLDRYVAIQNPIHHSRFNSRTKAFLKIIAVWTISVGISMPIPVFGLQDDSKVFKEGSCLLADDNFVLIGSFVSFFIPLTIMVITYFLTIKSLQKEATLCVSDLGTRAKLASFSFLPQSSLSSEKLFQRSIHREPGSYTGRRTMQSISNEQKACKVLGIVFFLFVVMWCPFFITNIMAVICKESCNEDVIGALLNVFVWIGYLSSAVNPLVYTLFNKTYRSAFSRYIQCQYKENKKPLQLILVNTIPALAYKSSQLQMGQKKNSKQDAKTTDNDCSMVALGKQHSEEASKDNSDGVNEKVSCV
Excerpt: radioligand displacement, membranes on 5-HT2A

[3] = biological target: T3, 5-HT2B (Homo sapiens, UniProt P41595); assay: radioligand displacement, membranes
T3 construct: gene HTR2B; human recombinant receptor; crude membrane fractions of transfected HEK293 or CHO cells
T3 sequence (P41595 whole entry): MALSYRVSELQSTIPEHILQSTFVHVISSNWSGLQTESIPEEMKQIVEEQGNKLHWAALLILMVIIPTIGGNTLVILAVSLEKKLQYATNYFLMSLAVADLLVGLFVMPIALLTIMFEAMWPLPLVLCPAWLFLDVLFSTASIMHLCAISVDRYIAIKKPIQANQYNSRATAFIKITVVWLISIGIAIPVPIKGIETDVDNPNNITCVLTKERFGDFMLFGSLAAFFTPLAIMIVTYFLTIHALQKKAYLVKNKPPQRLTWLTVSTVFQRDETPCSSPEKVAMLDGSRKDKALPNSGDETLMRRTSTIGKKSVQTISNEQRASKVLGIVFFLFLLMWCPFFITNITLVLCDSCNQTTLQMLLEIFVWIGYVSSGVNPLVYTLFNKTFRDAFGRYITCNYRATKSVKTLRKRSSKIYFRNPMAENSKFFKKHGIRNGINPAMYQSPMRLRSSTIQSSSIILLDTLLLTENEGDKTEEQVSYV
Excerpt: radioligand displacement, membranes on 5-HT2B

[4] = biological target: T1, 5-HT2C; assay: [3H]mesulergine displacement, membranes; details: read-out: 5-HT2B / Ki

SMILES | Ki [1] [nM] | Ki [2] [nM] | Ki [3] [nM] | Ki [4] [nM]
CC(CCc1ccc(F)cc1)Oc1nc(N2CCNC[C@H]2C)ncc1F (mixture of isomers) [4i, 5-Fluoro-4-((4-(4-fluorophenyl)butan-2-yl)oxy)-2-((R)-2-methylpiperazin-1-yl)pyrimidine] | 12 | 173 | 22 | –
C[C@@H]1CNCCN1c1ncc(F)c(OCCCc2cccc(F)c2)n1 [4f, (R)-5-Fluoro-4-(3-(3-fluorophenyl)propoxy)-2-(2-methylpiperazin-1-yl)pyrimidine] | 20 | 138 | 24 | –
C[C@@H]1CNCCN1c1ncc(F)c(OCCCc2ccc(F)cc2)n1 [4g, (R)-5-Fluoro-4-(3-(4-fluorophenyl)propoxy)-2-(2-methylpiperazin-1-yl)pyrimidine] | – | 90 | 22 | 22
CC(Oc1nc(N2CCNC[C@H]2C)ncc1F)c1cccc(F)c1 (mixture of isomers) [4d, 5-Fluoro-4-(1-(3-fluorophenyl)ethoxy)-2-((R)-2-methylpiperazin-1-yl)pyrimidine] | 2.7 | 213 | 4.8 | –
C[C@@H]1CNCCN1c1ncc(F)c(OCc2cccc(F)c2)n1 [4b, (R)-5-Fluoro-4-((3-fluorobenzyl)oxy)-2-(2-methylpiperazin-1-yl)pyrimidine] | 5.1 | 43 | 14 | –
CC(Oc1nc(N2CCNC[C@H]2C)ncc1F)c1ccc(F)cc1 (mixture of isomers) [4e, 5-Fluoro-4-(1-(4-fluorophenyl)ethoxy)-2-((R)-2-methylpiperazin-1-yl)pyrimidine] | 4.5 | 426 | 10 | –
C[C@@H]1CNCCN1c1ncc(F)c(OCc2ccc(F)cc2)n1 [4c, (R)-5-Fluoro-4-((4-fluorobenzyl)oxy)-2-(2-methylpiperazin-1-yl)pyrimidine] | 22 | 51 | 14 | –
CC(CCc1cccc(F)c1)Oc1nc(N2CCNC[C@H]2C)ncc1F (mixture of isomers) [4h, 5-Fluoro-4-((4-(3-fluorophenyl)butan-2-yl)oxy)-2-((R)-2-methylpiperazin-1-l)pyrimidine] | 14 | 170 | 16 | –
C[C@@H]1CNCCN1c1ncc(F)c(OCc2ccccc2F)n1 [4a, (R)-5-Fluoro-4-((2-fluorobenzyl)oxy)-2-(2-methylpiperazin-1-yl)pyrimidine] | 31 | 80 | 56 | –
